Data: PubChem BioAssay (NCI)
Several values for one entry are separate records, joined by “and”; a condition that tells them apart may be missing. Identical values can stand only once.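 Cultured in 96-well plates, cells were exposed to test compound for 48 hours across five concentrations. Abbreviation: GI50, concentration required for 50% inhibition of growth. Definition used: TGI = concentration required for complete inhibition of growth.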

Assays:
Experiment in all cases: NCI-60 cell line screen, 48 h
[1] = test system: 786-0 renal
[2] = test system: A549 NSCLC
[3] = test system: ACHN renal
[4] = test system: BT-549 breast
[5] = test system: CAKI-1 renal
[6] = test system: CCRF-CEM leukemia
[7] = test system: DU-145 prostate
[8] = test system: EKVX NSCLC
[9] = test system: HCC-2998 colon
[10] = test system: HCT-116 colon
[11] = test system: HCT-15 colon
[12] = test system: HL-60(TB) leukemia
[13] = test system: HOP-62 NSCLC
[14] = test system: HT29 colon
[15] = test system: IGROV1 ovarian
[16] = test system: K-562 leukemia
[17] = test system: KM12 colon
[18] = test system: LOX IMVI melanoma
[19] = test system: MALME-3M melanoma
[20] = test system: MCF7 breast
[21] = test system: MDA-MB-231 breast
[22] = test system: MDA-MB-435
[23] = test system: MOLT-4 leukemia
[24] = test system: NCI-H226 lung
[25] = test system: NCI-H23 lung
[26] = test system: NCI-H460 lung
[27] = test system: NCI-H522 lung
[28] = test system: NCI/ADR-RES ovarian
[29] = test system: OVCAR-3 ovarian
[30] = test system: OVCAR-4 ovarian
[31] = test system: OVCAR-5 ovarian
[32] = test system: OVCAR-8 ovarian
[33] = test system: PC-3 prostate
[34] = test system: RPMI-8226 leukemia
[35] = test system: RXF 393 renal
[36] = test system: SF-268 CNS
[37] = test system: SF-295 CNS
[38] = test system: SF-539 CNS
[39] = test system: SK-MEL-2 melanoma
[40] = test system: SK-MEL-28 melanoma
[41] = test system: SK-MEL-5 melanoma
[42] = test system: SK-OV-3 ovarian
[43] = test system: SN12C renal
[44] = test system: SNB-19 CNS
[45] = test system: SNB-75 CNS
[46] = test system: SR leukemia
[47] = test system: SW-620 colon
[48] = test system: T-47D breast
[49] = test system: TK-10 renal
[50] = test system: U251 CNS
[51] = test system: UACC-257 melanoma
[52] = test system: UO-31 renal
[53] = test system: A498 renal
[54] = test system: COLO 205 colon
[55] = test system: HOP-92 NSCLC
[56] = test system: HS 578T breast
[57] = test system: M14 melanoma
[58] = test system: UACC-62 melanoma

SMILES: Cc1ccc(Nc2nccc(N(C)c3ccc4c(C)n(C)nc4c3)n2)cc1S(N)(=O)=O
- GI50 [1]: 4.03 µM and 2.8 µM and 5.96 µM
- TGI [1]: > 100 µM
- GI50 [2]: 4.63 µM and 3.58 µM and 10 µM
- TGI [2]: > 100 µM
- GI50 [3]: 4.08 µM and 3.12 µM and 4.98 µM
- TGI [3]: > 100 µM
- GI50 [4]: 1.7 µM and 1.46 µM and 5.02 µM
- TGI [4]: 7.66 µM and > 10 µM and 36.6 µM
- GI50 [5]: 1.43 µM and 4.39 µM
- TGI [5]: > 100 µM
- GI50 [6]: 4.37 µM and 7.01 µM and 8.07 µM
- TGI [6]: > 100 µM
- GI50 [7]: 5.21 µM and 5.4 µM and 11.5 µM
- TGI [7]: > 100 µM
- GI50 [8]: 3.22 µM and 4.11 µM and 15.2 µM
- TGI [8]: > 100 µM
- GI50 [9]: > 100 µM and 29.8 µM
- TGI [9]: > 100 µM
- GI50 [10]: 3.49 µM and 1.7 µM and 5.44 µM
- TGI [10]: > 100 µM
- GI50 [11]: 4.04 µM and 2.77 µM and 5.98 µM
- TGI [11]: > 100 µM
- GI50 [12]: 6.45 µM and 1.94 µM and 7.14 µM
- TGI [12]: 30.6 µM and > 10 µM and 34 µM
- GI50 [13]: 8.64 µM and 1.51 µM and 11.7 µM
- TGI [13]: > 100 µM and > 10 µM and 42.5 µM
- GI50 [14]: 4.03 µM and 0.49 µM and 4.68 µM
- TGI [14]: > 100 µM
- TGI [15]: > 100 µM
- GI50 [16]: 3.05 µM and 0.454 µM and 4.21 µM
- TGI [16]: > 100 µM
- GI50 [17]: 5.01 µM and 2.6 µM and 5.56 µM
- TGI [17]: > 100 µM and > 10 µM and 27 µM
- GI50 [18]: 2.88 µM and 0.479 µM and 3.93 µM
- TGI [19]: > 74.4 µM
- GI50 [20]: 4.06 µM and 3.1 µM and 6.69 µM
- TGI [20]: > 100 µM
- GI50 [21]: 3.72 µM and 1.44 µM and 5.88 µM
- TGI [21]: > 100 µM
- GI50 [22]: 3.93 µM and 0.758 µM and 6.37 µM
- TGI [22]: > 100 µM and > 10 µM and 34.4 µM
- GI50 [23]: 4 µM and 2.26 µM and 5.27 µM
- TGI [23]: 24 µM and > 10 µM and 47.1 µM
- GI50 [24]: 0.781 µM and 0.425 µM and 1.41 µM
- TGI [24]: > 100 µM
- GI50 [25]: 4.03 µM and 2.92 µM and 6.49 µM
- TGI [25]: > 100 µM and > 10 µM and 93.1 µM
- GI50 [26]: 4.48 µM and 2.76 µM and 6.34 µM
- TGI [26]: > 100 µM
- GI50 [27]: 5.33 µM and 4 µM and 10.7 µM
- TGI [27]: 39 µM and > 10 µM and 28 µM
- GI50 [28]: 45.8 µM and 23.1 µM
- TGI [28]: > 100 µM
- GI50 [29]: 7.93 µM and 6.42 µM and 15.2 µM
- TGI [29]: > 100 µM and > 10 µM and 77.9 µM
- GI50 [30]: 3.43 µM and 0.681 µM and 4.42 µM
- TGI [30]: > 100 µM
- GI50 [31]: 1.43 µM and 6.49 µM
- TGI [31]: > 100 µM
- GI50 [32]: 4.8 µM and 3.61 µM and 5.04 µM
- TGI [32]: > 100 µM
- GI50 [33]: 4.98 µM and 7.27 µM and 7.73 µM
- TGI [33]: > 100 µM
- GI50 [34]: 10.8 µM and 2.61 µM and 6.49 µM
- TGI [34]: > 100 µM and > 10 µM and 31.6 µM
- GI50 [35]: 2.43 µM and 0.634 µM and 2.41 µM
- GI50 [36]: 5.26 µM and 3.17 µM and 9.96 µM
- TGI [36]: > 100 µM
- GI50 [37]: 3.57 µM and 2.78 µM and 9.92 µM
- TGI [37]: > 100 µM
- GI50 [38]: 0.589 µM and 1.5 µM
- GI50 [39]: 4.67 µM and 1.46 µM and 4.62 µM
- TGI [40]: > 100 µM and > 10 µM and 84.2 µM
- GI50 [41]: 2.41 µM
- TGI [41]: 10.8 µM
- GI50 [42]: 2.93 µM and 4.9 µM and 4.24 µM
- TGI [42]: 29.6 µM and > 10 µM and > 100 µM
- GI50 [43]: 3.77 µM and 2.65 µM and 6.38 µM
- TGI [43]: > 100 µM
- TGI [44]: > 100 µM
- GI50 [45]: 2.39 µM and 1.03 µM and 5.83 µM
- GI50 [46]: 4.08 µM and 3.49 µM and 5.95 µM
- TGI [46]: > 100 µM and > 10 µM and 37.9 µM
- TGI [47]: > 100 µM
- GI50 [48]: 3.91 µM and 1.58 µM and 3.98 µM
- GI50 [49]: 2.05 µM and 9.87 µM
- TGI [49]: > 10 µM and 77.3 µM
- GI50 [50]: 3.35 µM and 0.95 µM and 8.12 µM
- TGI [50]: > 100 µM
- TGI [51]: > 10 µM and 51.5 µM
- GI50 [52]: 3.13 µM and 0.539 µM and 4.67 µM
- TGI [52]: > 100 µM

SMILES: CSc1c(C2=C(c3cn(C)c4ccccc34)C(=O)NC2=O)c2ccccc2n1C
- GI50 [1]: 1.19 µM
- TGI [1]: > 25 µM
- GI50 [53]: 0.376 µM
- TGI [53]: 2.11 µM
- GI50 [2]: 1.14 µM
- TGI [2]: > 25 µM
- GI50 [3]: 0.845 µM
- TGI [3]: > 25 µM
- GI50 [4]: 0.747 µM
- TGI [4]: 11.5 µM
- GI50 [5]: 0.741 µM
- TGI [5]: > 20.4 µM
- GI50 [6]: 0.793 µM
- TGI [6]: > 17 µM
- GI50 [54]: 0.675 µM
- TGI [54]: > 25 µM
- GI50 [7]: 1.13 µM
- TGI [7]: > 25 µM
- GI50 [9]: 5.31 µM
- TGI [9]: > 25 µM
- GI50 [10]: 1.04 µM
- TGI [10]: > 25 µM
- GI50 [11]: 0.755 µM
- TGI [11]: > 25 µM
- GI50 [12]: 0.703 µM
- TGI [12]: 3.55 µM
- GI50 [13]: 1.38 µM
- TGI [13]: > 25 µM
- GI50 [55]: 0.599 µM
- TGI [55]: > 25 µM
- GI50 [56]: 0.59 µM
- TGI [56]: > 25 µM
- GI50 [14]: 0.814 µM
- TGI [14]: > 25 µM
- GI50 [15]: 1.39 µM
- TGI [15]: > 25 µM
- GI50 [16]: 0.665 µM
- TGI [16]: > 25 µM
- GI50 [17]: 0.843 µM
- TGI [17]: > 25 µM
- GI50 [18]: 1.54 µM
- TGI [18]: > 25 µM
- GI50 [57]: 0.649 µM
- TGI [57]: > 25 µM
- GI50 [19]: 1.21 µM
- TGI [19]: > 25 µM
- GI50 [20]: 0.805 µM
- TGI [20]: > 25 µM
- GI50 [21]: 2.57 µM
- TGI [21]: > 25 µM
- GI50 [23]: 1.43 µM
- TGI [23]: 8.78 µM
- GI50 [24]: 3.21 µM
- TGI [24]: > 25 µM
- GI50 [25]: 1.39 µM
- TGI [25]: > 25 µM
- GI50 [26]: 0.832 µM
- TGI [26]: > 25 µM
- GI50 [27]: 0.367 µM
- TGI [27]: 1.59 µM
- GI50 [28]: 1.02 µM
- TGI [28]: > 25 µM
- GI50 [29]: 0.629 µM
- TGI [29]: 2 µM
- GI50 [30]: 1.2 µM
- TGI [30]: > 22.5 µM
- GI50 [31]: 23.4 µM
- TGI [31]: > 25 µM
- GI50 [32]: 1.56 µM
- TGI [32]: > 25 µM
- GI50 [33]: 0.795 µM
- TGI [33]: > 25 µM
- GI50 [34]: 0.813 µM
- TGI [34]: > 7.04 µM
- GI50 [35]: 0.273 µM
- TGI [35]: 1.4 µM
- GI50 [36]: 1.51 µM
- TGI [36]: > 25 µM
- GI50 [37]: 0.671 µM
- TGI [37]: > 25 µM
- GI50 [39]: 0.689 µM
- TGI [39]: 5.37 µM
- GI50 [40]: 1.85 µM
- TGI [40]: > 25 µM
- GI50 [41]: 0.758 µM
- TGI [41]: 6.88 µM
- GI50 [42]: 0.833 µM
- TGI [42]: > 25 µM
- GI50 [43]: 1.49 µM
- TGI [43]: > 25 µM
- GI50 [44]: > 25 µM
- TGI [44]: > 25 µM
- GI50 [45]: 0.728 µM
- TGI [45]: > 12.6 µM
- GI50 [46]: 0.128 µM
- TGI [46]: 1.88 µM
- GI50 [47]: 0.736 µM
- TGI [47]: > 25 µM
- GI50 [48]: 1.15 µM
- TGI [48]: > 25 µM
- GI50 [49]: 0.606 µM
- TGI [49]: > 25 µM
- GI50 [50]: 1.23 µM
- TGI [50]: > 25 µM
- GI50 [51]: 1.41 µM
- TGI [51]: > 25 µM
- GI50 [58]: 0.896 µM
- TGI [58]: > 25 µM
- GI50 [52]: 0.703 µM
- TGI [52]: > 19.4 µM
